The values below come from ChEMBL document CHEMBL1201862, “PubChem BioAssay data set” (2004).

Some test systems named below: SK-MEL-28; HL-60; SNB-75; COLO 205; OVCAR-5; EKVX; U-251; OVCAR-8; NCI-H226; NCI-H522; SK-OV-3; 786-0; DU-145; SF-539; M14; HOP-92; HT-29; UO-31; SN12C; UACC-62.
Holding throughout (test): DTP human tumour cell line panel, 48 h

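These data come from cells grown in 96-well plates and exposed to compound for 48 hours at five concentrations. Here, GI50 denotes the concentration required for 50% inhibition of growth.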 The source made the active and inactive calls. No stated cut-off is given here; in the data, active = GI50 up to about 1.1 µM and inactive = higher.

As to `Oc1cc(Cl)cc2cc(Br)cnc12`, the GI50 is 7.16 µM (inactive) in the assay with SK-MEL-28; 0.258 µM (active) in the assay with HL-60; 13.6 µM (inactive) in the assay with SNB-75; 41.6 µM (inactive) in the assay on COLO 205; 8.95 µM (inactive) with OVCAR-5; 4.14 µM (inactive) in the assay on EKVX. Moreover, the GI50 was 2.07 µM (inactive) in the assay with U-251; 2.3 µM (inactive) with OVCAR-8; 22.6 µM (inactive) in the assay on NCI-H226; 2.74 µM (inactive) with NCI-H522; > 59.8 µM (inactive) in the assay on SK-OV-3; 9.86 µM (inactive) in the assay on 786-0. The GI50 was 5.14 µM (inactive) with DU-145; 2.18 µM (inactive) with SF-539; 1.56 µM (inactive) with M14; 4.69 µM (inactive) with HOP-92; 11.3 µM (inactive) in the assay on HT-29; 3.94 µM (inactive) in the assay on UO-31. Also, the GI50 with SN12C is 2.23 µM (inactive); in the assay on UACC-62 it was 6.27 µM (inactive).

As for `COC(=O)C1(F)C(=O)NC(=O)NC1O` (stereo not given), the GI50 is > 100 µM (inactive) in the assay with SK-MEL-28; 31 µM (inactive) with HL-60; > 65 µM (inactive) in the assay on SNB-75; 40.4 µM (inactive) in the assay on COLO 205; > 100 µM (inactive) with OVCAR-5; 99.8 µM (inactive) in the assay on EKVX. For the same molecule, the GI50 with U-251, in the assay on OVCAR-8, with NCI-H226, with NCI-H522, in the assay on SK-OV-3 and in the assay with 786-0 was > 100 µM (inactive) in each case. Also, the GI50 is > 100 µM (inactive) in the assay on DU-145; 25.4 µM (inactive) in the assay with SF-539; > 100 µM (inactive) in the assay on M14; > 58.9 µM (inactive) with HOP-92; > 66.5 µM (inactive) with HT-29; 59.4 µM (inactive) in the assay on UO-31. The GI50 in the assay on SN12C and in the assay on UACC-62 was > 100 µM (inactive) in each case.

Take `CN(C)c1ccc(C2SCC(=O)N2c2nc3cc4sc(N5C(=O)CSC5c5ccc(N(C)C)cc5)nc4cc3s2)cc1` (stereo not given): the GI50 with SK-MEL-28 is > 72.8 µM (inactive); in the assay on HL-60 it was 29 µM (inactive); in the assay with SNB-75, > 90.6 µM (inactive); with COLO 205, 3.73 µM (inactive); in the assay on OVCAR-5, > 94 µM (inactive); with EKVX it was 54.1 µM (inactive). Also, the GI50 in the assay with U-251 is 30.7 µM (inactive); with OVCAR-8 it was > 70.5 µM (inactive); in the assay on NCI-H226, 7.62 µM (inactive); with NCI-H522 it was 3.76 µM (inactive); in the assay with SK-OV-3 it was 85.7 µM (inactive); with 786-0 it was > 100 µM (inactive). Also, the GI50 with DU-145 is 13.2 µM (inactive); in the assay with SF-539, 51.5 µM (inactive); in the assay on M14, 51.3 µM (inactive); in the assay with HOP-92, > 60.5 µM (inactive); with HT-29 it was 17 µM (inactive); with UO-31, 23.1 µM (inactive). For the same molecule, the GI50 in the assay on SN12C was > 20.5 µM (inactive); in the assay with UACC-62, > 72.3 µM (inactive).

Regarding `COc1ccc(/C=c2/s/c(=C(\C#N)c3nc4ccccc4[nH]3)n(-c3ccccc3)c2=O)cc1`, the GI50 in the assay on SK-MEL-28 was 48.2 µM (inactive); in the assay on HL-60, > 100 µM (inactive); in the assay on SNB-75, > 26.4 µM (inactive); in the assay with COLO 205 it was 36.2 µM (inactive); in the assay on OVCAR-5 it was > 100 µM (inactive); in the assay on EKVX, > 69.3 µM (inactive). Besides, the GI50 with U-251 is 48.1 µM (inactive); in the assay on OVCAR-8, 14.6 µM (inactive); in the assay on NCI-H226, 16.9 µM (inactive); in the assay with NCI-H522, > 60.3 µM (inactive); with SK-OV-3, 2.96 µM (inactive); with 786-0, 12.8 µM (inactive). For the same molecule, the GI50 is 94.6 µM (inactive) with DU-145; 25.1 µM (inactive) with SF-539; > 56.9 µM (inactive) in the assay with M14; 12.6 µM (inactive) in the assay on HOP-92; 6.12 µM (inactive) in the assay on HT-29; > 52.6 µM (inactive) in the assay with UO-31. In addition, the GI50 was > 80.2 µM (inactive) with SN12C and > 28.3 µM (inactive) with UACC-62.

Take `NC(=O)c1oc([N+](=O)[O-])c(-c2ccccc2)c1-c1ccccc1`: the GI50 with SK-MEL-28 is 44 µM (inactive); in the assay with HL-60 it was 25.1 µM (inactive); with SNB-75, 65.9 µM (inactive); with COLO 205, 16.8 µM (inactive); in the assay with OVCAR-5, 26.1 µM (inactive); in the assay on EKVX it was 17.6 µM (inactive). Also, the GI50 in the assay with U-251 is 24.3 µM (inactive); in the assay with OVCAR-8 it was 24.8 µM (inactive); in the assay on NCI-H226 it was 11 µM (inactive); with NCI-H522 it was 12.6 µM (inactive); in the assay on SK-OV-3 it was 36.1 µM (inactive); with 786-0, 25.1 µM (inactive). Further, the GI50 was 26.9 µM (inactive) with DU-145; 18.5 µM (inactive) with SF-539; 17.7 µM (inactive) with M14; 16.1 µM (inactive) with HOP-92; 27.2 µM (inactive) in the assay on HT-29; 16.3 µM (inactive) in the assay on UO-31. Besides, the figures for the GI50 with SN12C and in the assay on UACC-62 were 0.0367 µM (active) and 8.65 µM (inactive), respectively.

As for `CC1OC(n2cc(F)c(=O)[nH]c2=O)CCC1O` (stereo not given), the GI50 was > 100 µM (inactive) in the assay on SK-MEL-28; > 79.4 µM (inactive) in the assay on HL-60; > 72.9 µM (inactive) in the assay on SNB-75; > 87.1 µM (inactive) with COLO 205; > 100 µM (inactive) in the assay on OVCAR-5; > 100 µM (inactive) in the assay with EKVX. In addition, the GI50 was > 100 µM (inactive) in the assay with U-251; > 85.3 µM (inactive) in the assay with OVCAR-8; > 100 µM (inactive) with NCI-H226; > 95.1 µM (inactive) in the assay with NCI-H522; > 100 µM (inactive) in the assay with SK-OV-3; > 100 µM (inactive) in the assay on 786-0. For the same molecule, the GI50 was > 77.6 µM (inactive) with DU-145; 29.2 µM (inactive) with SF-539; > 91.4 µM (inactive) in the assay on M14; > 100 µM (inactive) in the assay on HOP-92; 98.9 µM (inactive) in the assay with HT-29; 85.3 µM (inactive) in the assay on UO-31. Moreover, the GI50 in the assay with SN12C and in the assay on UACC-62 was > 100 µM (inactive) each time.

In the case of `C=C(C)COc1ccc2c(c1)CCC1C2CCC2(C)C(=O)/C(=N/O)CC12` (stereo not given), the GI50 in the assay with SK-MEL-28 was 17.2 µM (inactive); in the assay with HL-60 it was 1.78 µM (inactive); with SNB-75, 1.9 µM (inactive); in the assay with COLO 205 it was 3.21 µM (inactive); in the assay with OVCAR-5, 3.93 µM (inactive); in the assay on EKVX, 2.59 µM (inactive). Further, the GI50 in the assay on U-251 is 4.09 µM (inactive); in the assay with OVCAR-8 it was 6.92 µM (inactive); in the assay on NCI-H226, 9.31 µM (inactive); with NCI-H522, 3.58 µM (inactive); with SK-OV-3, 8.55 µM (inactive); in the assay with 786-0 it was 2.86 µM (inactive). The GI50 in the assay on DU-145 was 2.12 µM (inactive); with SF-539, 12.8 µM (inactive); in the assay on M14 it was 4.13 µM (inactive); with HOP-92, 2.3 µM (inactive); with HT-29, 1.31 µM (inactive); in the assay with UO-31 it was 3.9 µM (inactive). The GI50 was 3.13 µM (inactive) with SN12C and 14.9 µM (inactive) in the assay with UACC-62.

On to `O=C1NC(=O)C(CC2CCCCCCCCCCC2=O)C(=O)N1` (stereo not given), for which the GI50 in the assay on SK-MEL-28 is > 100 µM (inactive); in the assay on HL-60, 4.94 µM (inactive); with SNB-75, > 100 µM (inactive); in the assay with COLO 205, > 100 µM (inactive); in the assay with OVCAR-5, > 100 µM (inactive); in the assay on EKVX, > 100 µM (inactive). In addition, the GI50 in the assay with U-251, in the assay on OVCAR-8, in the assay with NCI-H226, with NCI-H522, with SK-OV-3 and with 786-0 was > 100 µM (inactive) throughout. For the same molecule, the GI50 in the assay on DU-145 was > 100 µM (inactive); with SF-539 it was > 100 µM (inactive); in the assay with M14, > 100 µM (inactive); in the assay on HOP-92, > 100 µM (inactive); in the assay on HT-29, 74 µM (inactive); in the assay with UO-31, 74 µM (inactive). For the same molecule, the GI50 in the assay on SN12C and in the assay on UACC-62 was > 100 µM (inactive) in each case.

As to `C/C(=N\N=C(/S)N1CCCCCC1)c1cccc[n+]1[O-]`, the GI50 with SK-MEL-28 was 6.58 µM (inactive); in the assay on HL-60, 0.336 µM (active); in the assay with SNB-75 it was 10.5 µM (inactive); in the assay with COLO 205, 0.499 µM (active); in the assay on OVCAR-5, 21.4 µM (inactive); in the assay with EKVX it was 7.23 µM (inactive). Besides, the GI50 is 6.28 µM (inactive) in the assay with U-251; 3.12 µM (inactive) with OVCAR-8; 7.69 µM (inactive) in the assay with NCI-H226; 0.592 µM (active) in the assay with NCI-H522; 20.8 µM (inactive) with SK-OV-3; 1.53 µM (inactive) with 786-0. In addition, the GI50 in the assay on DU-145 is 31.5 µM (inactive); with SF-539 it was 4.54 µM (inactive); in the assay with M14 it was 2.72 µM (inactive); in the assay on HOP-92, 11.1 µM (inactive); in the assay with HT-29, 0.31 µM (active); in the assay with UO-31, 7.55 µM (inactive). Also, the GI50 is 13.8 µM (inactive) in the assay on SN12C and 1.88 µM (inactive) in the assay on UACC-62.

`O=S(=O)(N/C(=N\O)Nc1ccc(Cl)cc1)c1cc2ccccc2s1`: the GI50 was 19.4 µM (inactive) in the assay on SK-MEL-28; 11.7 µM (inactive) in the assay on HL-60; 12.7 µM (inactive) in the assay on SNB-75; 15.2 µM (inactive) with COLO 205; 15.2 µM (inactive) in the assay on OVCAR-5; 12.9 µM (inactive) with EKVX. Besides, the GI50 is 15.2 µM (inactive) with U-251; 16.8 µM (inactive) with OVCAR-8; 15.4 µM (inactive) in the assay on NCI-H226; 13.8 µM (inactive) in the assay with NCI-H522; 16.7 µM (inactive) with SK-OV-3; 18.4 µM (inactive) in the assay with 786-0. The GI50 is 20.9 µM (inactive) in the assay on DU-145; 18.5 µM (inactive) in the assay on SF-539; 17.9 µM (inactive) in the assay with M14; 18.3 µM (inactive) with HOP-92; 19.6 µM (inactive) in the assay on HT-29; 33.9 µM (inactive) in the assay on UO-31. Moreover, the GI50 with SN12C is 18.6 µM (inactive); with UACC-62, 15.3 µM (inactive).

As a reminder, the GI50 is the concentration at which growth is held to half of that of the control.
